Data published in PMC10095550, “Design, Synthesis and Biological Evaluation of 6-(Imidazo[1,2-a]pyridin-6-yl)quinazoline Derivatives as Anticancer Agents via PI3Kα Inhibition” (International Journal of Molecular Sciences, 2023).

Target: T1, PI3Kα (Homo sapiens, UniProt P42336)
T1 construct: gene PIK3CA
Assay: ADP-Glo Max kinase assay
Type: biochemical

T1 sequence (P42336 whole entry): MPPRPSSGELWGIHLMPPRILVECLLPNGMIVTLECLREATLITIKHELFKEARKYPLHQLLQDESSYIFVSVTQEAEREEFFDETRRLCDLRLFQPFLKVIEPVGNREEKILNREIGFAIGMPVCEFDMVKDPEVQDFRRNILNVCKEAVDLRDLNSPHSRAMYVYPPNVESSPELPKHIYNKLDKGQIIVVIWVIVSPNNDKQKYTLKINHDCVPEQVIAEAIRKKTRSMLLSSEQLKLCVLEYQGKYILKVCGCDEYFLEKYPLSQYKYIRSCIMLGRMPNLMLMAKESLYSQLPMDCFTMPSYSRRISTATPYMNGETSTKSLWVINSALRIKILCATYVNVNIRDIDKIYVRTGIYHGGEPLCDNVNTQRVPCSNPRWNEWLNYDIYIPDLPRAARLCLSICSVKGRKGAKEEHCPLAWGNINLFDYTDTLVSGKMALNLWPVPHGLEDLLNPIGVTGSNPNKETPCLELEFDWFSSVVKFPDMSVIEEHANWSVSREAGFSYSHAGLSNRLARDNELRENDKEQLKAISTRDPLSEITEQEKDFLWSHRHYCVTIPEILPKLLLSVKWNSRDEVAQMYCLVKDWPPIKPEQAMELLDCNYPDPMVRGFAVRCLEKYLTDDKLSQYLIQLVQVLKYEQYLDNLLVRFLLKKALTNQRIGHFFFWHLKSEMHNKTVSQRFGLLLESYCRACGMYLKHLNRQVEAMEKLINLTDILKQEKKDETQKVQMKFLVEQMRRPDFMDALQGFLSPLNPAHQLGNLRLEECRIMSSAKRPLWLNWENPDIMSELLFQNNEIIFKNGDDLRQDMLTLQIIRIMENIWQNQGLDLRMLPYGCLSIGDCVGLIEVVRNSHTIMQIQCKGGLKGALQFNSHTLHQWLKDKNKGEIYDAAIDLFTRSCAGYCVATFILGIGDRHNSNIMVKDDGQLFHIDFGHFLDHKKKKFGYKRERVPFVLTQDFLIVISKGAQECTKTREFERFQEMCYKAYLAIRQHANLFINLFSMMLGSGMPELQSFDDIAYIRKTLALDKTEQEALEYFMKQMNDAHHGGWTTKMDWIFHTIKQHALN

c1ccc(-c2cn3cc(-c4ccc5ncnc(NCC6CCOCC6)c5c4)ccc3n2)cc1 [13k, 6-(2-phenylimidazo[1,2-a]pyridin-6-yl)-N-((tetrahydro-2H-pyran-4-yl)methyl)quinazolin-4-amine]
IC50: 1.94 ± 0.66 nM
